Measured values: ChEMBL document CHEMBL3885861, “Open TG-GATES”

Organism: Rattus norvegicus
Assay: Open TG-GATES - Regimen: Single
Format: toxicity, organism-based, Sprague-Dawley
Set-up: regimen Single, gender Male, age 6 weeks
Conditions: in vivo, po, route gavage; for APTT / Bas / Eos / Fbg / Hb / Ht / Lym / MCH / MCHC / MCV / Mono / Neu / PT / Plat / RBC / Ret / WBC: tissue Blood; for KIDNEY_L / KIDNEY_R / KIDNEY_TOTAL: tissue Kidney; for LIVER: tissue Liver; for ALP / ALT / AST / BUN / CRE / Ca / Cl / DBIL / GLC / IP / K / LDH / Na / PL / RALB / TBIL / TC / TP / gamma-GTP: tissue Plasma
[1] = 5 mg/kg, 3 h, dose level Middle
[2] = 5 mg/kg, 6 h, dose level Middle
[3] = 5 mg/kg, 9 h, dose level Middle
[4] = 5 mg/kg, 24 h, dose level Middle

## O=P1(N(CCCl)CCCl)NCCCO1 (stereo unspecified) [CYCLOPHOSPHAMIDE ANHYDROUS]
2 mg/kg, 24 h, dose level Low
  TERMINAL_BW: 197.9 g
  APTT: 22 s
  Bas: 0%
  Eos: 1%
  Fbg: 284.2 mg/dL
  Hb: 13.3 g/dL
  Ht: 39.7%
  Lym: 82%
  MCH: 21.1 pg
  MCHC: 33.5%
  MCV: 63 fL
  Mono: 2.2%
  Neu: 14.2%
  PT: 17 s
  Plat: 117.1 x10_4/uL
  RBC: 630.8 x10_4/ul
  Ret: 7%
  WBC: 74.3 x10_2/uL
  KIDNEY_L: 0.9 g
  KIDNEY_R: 0.9 g
  KIDNEY_TOTAL: 1.8 g
  LIVER: 9.1 g
  ALP: 1746.6 IU/L
  ALT: 44.6 IU/L
  AST: 72.8 IU/L
  BUN: 17.4 mg/dL
  CRE: 0.2 mg/dL
  Ca: 10.9 mg/dL
  Cl: 106 meq/L
  DBIL: 0 mg/dL
  GLC: 179.6 mg/dL
  IP: 7.5 mg/dL
  K: 4.5 meq/L
  LDH: 207.2 IU/L
  Na: 142.4 meq/L
  PL: 139.6 mg/dL
  RALB: 3 g/dL
  TBIL: 0.006 mg/dL
  TC: 70.6 mg/dL
  TP: 5.5 g/dL
  gamma-GTP: 0.8 IU/L
[1]
  TERMINAL_BW: 186.6 g
  APTT: 22.8 s
  Bas: 0%
  Eos: 0.8%
  Fbg: 290.2 mg/dL
  Hb: 12.9 g/dL
  Ht: 39%
  Lym: 83.6%
  MCH: 21.1 pg
  MCHC: 33.2%
  MCV: 63.7 fL
  Mono: 1.4%
  Neu: 13.6%
  PT: 15.6 s
  Plat: 113 x10_4/uL
  RBC: 611.6 x10_4/ul
  Ret: 8.1%
  WBC: 60.2 x10_2/uL
  KIDNEY_L: 0.8 g
  KIDNEY_R: 0.9 g
  KIDNEY_TOTAL: 1.7 g
  LIVER: 8.3 g
  ALP: 1552.4 IU/L
  ALT: 44.4 IU/L
  AST: 73.4 IU/L
  BUN: 11.2 mg/dL
  CRE: 0.1 mg/dL
  Ca: 10.6 mg/dL
  Cl: 106.4 meq/L
  DBIL: 0 mg/dL
  GLC: 180.6 mg/dL
  IP: 9 mg/dL
  K: 4 meq/L
  LDH: 175.2 IU/L
  Na: 143.8 meq/L
  PL: 137.6 mg/dL
  RALB: 3 g/dL
  TBIL: 0.034 mg/dL
  TC: 81.4 mg/dL
  TP: 5.4 g/dL
  gamma-GTP: 1 IU/L
[2]
  TERMINAL_BW: 189.8 g
  APTT: 22.5 s
  Bas: 0%
  Eos: 0.4%
  Fbg: 311.4 mg/dL
  Hb: 13.1 g/dL
  Ht: 39.4%
  Lym: 78%
  MCH: 21.1 pg
  MCHC: 33.2%
  MCV: 63.6 fL
  Mono: 2.8%
  Neu: 17.8%
  PT: 16.1 s
  Plat: 130.3 x10_4/uL
  RBC: 618.8 x10_4/ul
  Ret: 7.9%
  WBC: 86.9 x10_2/uL
  KIDNEY_L: 0.9 g
  KIDNEY_R: 0.9 g
  KIDNEY_TOTAL: 1.8 g
  LIVER: 8.4 g
  ALP: 1359.6 IU/L
  ALT: 39.6 IU/L
  AST: 66.8 IU/L
  BUN: 8.2 mg/dL
  CRE: 0.1 mg/dL
  Ca: 10.7 mg/dL
  Cl: 107.6 meq/L
  DBIL: 0 mg/dL
  GLC: 172 mg/dL
  IP: 9.5 mg/dL
  K: 4.1 meq/L
  LDH: 162.6 IU/L
  Na: 143.2 meq/L
  PL: 139.4 mg/dL
  RALB: 2.8 g/dL
  TBIL: 0.03 mg/dL
  TC: 77.8 mg/dL
  TP: 5.3 g/dL
  gamma-GTP: 1 IU/L
[3]
  TERMINAL_BW: 193 g
  APTT: 20.2 s
  Bas: 0%
  Eos: 1%
  Fbg: 309 mg/dL
  Hb: 12.6 g/dL
  Ht: 37.9%
  Lym: 71.6%
  MCH: 21.1 pg
  MCHC: 33.3%
  MCV: 63.3 fL
  Mono: 2.6%
  Neu: 24.4%
  PT: 16.3 s
  Plat: 115.7 x10_4/uL
  RBC: 599.6 x10_4/ul
  Ret: 8.6%
  WBC: 57.2 x10_2/uL
  KIDNEY_L: 0.9 g
  KIDNEY_R: 0.9 g
  KIDNEY_TOTAL: 1.8 g
  LIVER: 7.9 g
  ALP: 1360.2 IU/L
  ALT: 35.2 IU/L
  AST: 65.8 IU/L
  BUN: 9 mg/dL
  CRE: 0.1 mg/dL
  Ca: 10.5 mg/dL
  Cl: 106.6 meq/L
  DBIL: 0.002 mg/dL
  GLC: 179.4 mg/dL
  IP: 9.7 mg/dL
  K: 4 meq/L
  LDH: 146.8 IU/L
  Na: 143.6 meq/L
  PL: 129.8 mg/dL
  RALB: 3 g/dL
  TBIL: 0.042 mg/dL
  TC: 76.8 mg/dL
  TP: 5.5 g/dL
  gamma-GTP: 1 IU/L
[4]
  TERMINAL_BW: 203.3 g
  APTT: 22.1 s
  Bas: 0%
  Eos: 1%
  Fbg: 307.6 mg/dL
  Hb: 12.8 g/dL
  Ht: 38.5%
  Lym: 88.4%
  MCH: 21.4 pg
  MCHC: 33.3%
  MCV: 64.1 fL
  Mono: 1.6%
  Neu: 8%
  PT: 16.2 s
  Plat: 134.5 x10_4/uL
  RBC: 600.4 x10_4/ul
  Ret: 7.3%
  WBC: 58.1 x10_2/uL
  KIDNEY_L: 0.9 g
  KIDNEY_R: 0.9 g
  KIDNEY_TOTAL: 1.9 g
  LIVER: 9.4 g
  ALP: 1835.8 IU/L
  ALT: 48.6 IU/L
  AST: 73.2 IU/L
  BUN: 15.4 mg/dL
  CRE: 0.2 mg/dL
  Ca: 10.7 mg/dL
  Cl: 105.2 meq/L
  DBIL: 0.002 mg/dL
  GLC: 180.2 mg/dL
  IP: 8 mg/dL
  K: 4.2 meq/L
  LDH: 156.8 IU/L
  Na: 142.8 meq/L
  PL: 148.4 mg/dL
  RALB: 3 g/dL
  TBIL: 0.014 mg/dL
  TC: 76.2 mg/dL
  TP: 5.5 g/dL
  gamma-GTP: 1 IU/L
15 mg/kg, 3 h, dose level High
  TERMINAL_BW: 195.2 g
  APTT: 21.4 s
  Bas: 0%
  Eos: 0.8%
  Fbg: 291.2 mg/dL
  Hb: 13 g/dL
  Ht: 38.9%
  Lym: 76.2%
  MCH: 21.2 pg
  MCHC: 33.4%
  MCV: 63.4 fL
  Mono: 1.8%
  Neu: 20.2%
  PT: 15.6 s
  Plat: 120 x10_4/uL
  RBC: 613.8 x10_4/ul
  Ret: 8.2%
  WBC: 75.9 x10_2/uL
  KIDNEY_L: 0.9 g
  KIDNEY_R: 0.9 g
  KIDNEY_TOTAL: 1.7 g
  LIVER: 9 g
  ALP: 1506.2 IU/L
  ALT: 38.8 IU/L
  AST: 70.6 IU/L
  BUN: 11 mg/dL
  CRE: 0.1 mg/dL
  Ca: 10.7 mg/dL
  Cl: 105.6 meq/L
  DBIL: 0 mg/dL
  GLC: 179.4 mg/dL
  IP: 9.1 mg/dL
  K: 4.1 meq/L
  LDH: 197.8 IU/L
  Na: 142.6 meq/L
  PL: 136 mg/dL
  RALB: 2.9 g/dL
  TBIL: 0.032 mg/dL
  TC: 71.8 mg/dL
  TP: 5.3 g/dL
  gamma-GTP: 1 IU/L
15 mg/kg, 3 h, dose level Low
  TERMINAL_BW: 191.1 g
  APTT: 16.4 s
  Fbg: 273.4 mg/dL
  Hb: 12.8 g/dL
  Ht: 38.1%
  Lym: 81.6%
  MCH: 21 pg
  MCHC: 33.5%
  MCV: 62.8 fL
  Mono: 2.8%
  Neu: 14.2%
  PT: 13.8 s
  Plat: 112.1 x10_4/uL
  RBC: 608.2 x10_4/ul
  Ret: 8.6%
  WBC: 94.2 x10_2/uL
  KIDNEY_L: 0.8 g
  KIDNEY_R: 0.8 g
  KIDNEY_TOTAL: 1.6 g
  LIVER: 8.5 g
  ALP: 1407.8 IU/L
  ALT: 39 IU/L
  AST: 74.2 IU/L
  BUN: 10.2 mg/dL
  CRE: 0.2 mg/dL
  Ca: 10.9 mg/dL
  DBIL: 0.014 mg/dL
  GLC: 173.8 mg/dL
  IP: 8.1 mg/dL
  K: 4.4 meq/L
  LDH: 64 IU/L
  Na: 141.2 meq/L
  PL: 136.4 mg/dL
  RALB: 2.4 g/dL
  TBIL: 0.056 mg/dL
